“Also recorded” adds a separate entry of the source. Like-named read-outs stand apart in the source and are kept apart here.
Tests used:
[1] = Population pharmacokinetic model of dabrafenib/hydroxy-dabrafenib (NONMEM) from plasma concentrations; assay type: in vivo, human (patients)
Text: (§1) Seventy-three outpatients treated with DAB were enrolled from July 2015 to June 2017 in this observational multicentric study including three hospitals of the Assistance Publique—Hôpitaux de Paris (Cochin, Henri Mondor, and Avicenne). To be eligible, patients needed to meet the following criteria: a minimal age of 18 years, metastatic BRAF^V600-mutated solid tumors, treatment with DAB or CombiDT with at least one available DAB concentration measurement.
(§2) DAB, dabrafenib-d9 (internal standard, IS), and TRA were purchased from LGC Standards (Molsheim, France). A custom synthesis was developed by Shanghai Medicilon (Shanghai, China) for OHD. The plasma concentrations were assayed using a validated high-performance liquid chromatography-tandem mass spectrometry (HPLC-MS/MS) (ATSQ Quantum Ultra®mass spectrometer, ThermoFisher, Les Ulis, France). Chromatographic separation was performed on Accucore® C18 (2.1 × 50 mm; 2.6 µm) analytical column (ThermoFisher Scientific, Les Ulis, France) associated with a guard column packed with the same bonded phase. Two hundred microliters (µL) aliquot of plasma (calibration standard, internal quality control or patient sample) was mixed with 20 µL of IS solution. Then 600 µL acetonitrile with 1% (v/v) formic acid was added. Samples were mixed and centrifuged, and the supernatant was evaporated and recovered with 200 µL of mobile phase: water/methanol (70:30%, v/v) with formic acid (0.1% v/v). Ten microliters of this mixture were injected into the HPLC-MS/MS system. The calibration standards ranged from 10 to 2000 ng/mL for DAB and OHD and from 5 to 50 ng/mL for TRA.
(§3) Blood samples were collected in heparinized tubes during the treatment course, and the exact sample time was recorded. Plasma was separated by centrifugation (3000 rpm, 5 min), and stored at −20 °C until analysis.
(§4) The non-linear mixed effects modeling program NONMEM v7.4.1 [34] with the Perl-Speaks NONMEM (PsN) Toolkit v4.8.0 [35] was used to build DAB/OHD and TRA models. Pirana v2.9.2 was used to assist in model development. […] Molar units were used for DAB/OHD analyses. Plasma samples with concentrations below the lower limit of quantification of the assay, non-reliable time information about blood sampling, or without dose information were excluded from the analysis.
(§5) A stepwise strategy was used to identify the base models that best fitted DAB/OHD and TRA pharmacokinetic data. Different structural models such as one or two compartments, with linear absorption with or without lag time, were compared. DAB and OHD were modeled simultaneously testing multi-compartment models for both compounds. We hypothesized that DAB was cleared by complete oxidation to OHD, since it is not eliminated as unchanged molecule in urine and accounts for less than 22% in feces. Moreover, the first-order absorption rate constant (ka) of DAB was fixed to 1.8 h^−1 according to a previously published value to allow an adequate estimate of all pharmacokinetic parameters. Since DAB and TRA are administered orally, the pharmacokinetic parameters represent apparent values. Exponential errors following a log-normal distribution were assumed for the description of IIV of all the pharmacokinetic parameters. Inter-occasion variability (IOV) was tested in both DAB/OHD and TRA models to assess differences in individual parameters across study occasions. Additive, proportional, and mixed error models were compared to depict the residual unexplained variability (RUV) for both drugs and metabolite. The correlation between DAB and OHD data was tested using the L2 item in NONMEM. […]

[2] = tested on: BRAF^V600-mutated metastatic melanoma; assay: Survival (PFS, OS) and Cox exposure-survival analysis under CombiDT; assay type: in vivo, human (patients); details: for Risk of Death, HR (CI95%) for AUCM3 / Risk of Progression, HR (CI95%) for AUCM3: n = 30
Procedure: (§6) Pharmacokinetic/pharmacodynamic analysis was conducted in BRAF^V600-mutated MM patients concomitantly treated with CombiDT. Regarding safety, the onset of DLT was considered as the clinical endpoint. A DLT was defined as any toxicity leading to dose reduction or temporary or permanent discontinuation of treatment. Regarding survival, the primary end point was progression free survival (PFS), the time from DAB and TRA treatment initiation to documented progression event (either clinical or radiological progression) or death from any cause. The secondary end-point was overall survival (OS), defined as the time from DAB and TRA treatment initiation to death from any cause. Radiographic evidence of progression was defined according to modified Response Evaluation Criteria in Solid Tumor (RECIST) v1.1 [41].
Multivariate Cox models according to a stepwise procedure were tested including all variables which were significant at 5% level in the univariate analyses.

[3] = human, in vivo
Procedure: as §6
(§7) Systemic exposures to DAB, OHD, and TRA (AUCDAB, AUCOHD, and AUCTRA, respectively) were calculated with classic equations, composite DAB and OHD AUC (AUCDAB+OHD) as previously explained and AUCOHD/DAB as the ratio of AUCOHD over AUCDAB. Univariate Fisher and Wilcoxon models were performed to identify which parameters could contribute to the onset of DLT. The following variables were tested: sex, age at treatment initiation, BMI, Eastern Cooperative Oncology Group Performance Status (ECOG PS: grade 0-1 vs ≥2), lactate dehydrogenase (LDH) level (<1.5N vs. ≥1.5N), AUCDAB, AUDOHD, AUCDAB+OHD, and AUCTRA.
(§8) Multivariate Cox models according to a stepwise procedure were tested including all variables which were significant at 5% level in the univariate analyses. All the pharmacokinetic/pharmacodynamic analyses were performed using R program v3.6.1 with RStudio v1.1.383 (http://www.r-project.org).

[4] = tested on: mutant BRAF; design: method as in PMID 24958809; details: in vitro study; cited from earlier work
[5] = design: method as in earlier work; details: preclinical data; cited from earlier work
[6] = cited from earlier work
[7] = Model-estimated systemic exposure (AUC) in BRAF^V600-mutated MM patients treated with CombiDT; details: for AUC: human, plasma, oral
Procedure: as §6, §7, §8

[8] = Population pharmacokinetic model of trametinib (NONMEM) from plasma concentrations; assay type: in vivo, human (patients); details: for Vd/F: human, plasma, oral, read-out: V2/F, apparent central volume of distribution of TRA
Text: as §1, §2, §3, §4, §5

[9] = tested on: BRAF^V600-mutated MM patients; assay: Safety: adverse events and dose-limiting toxicities (DLT) under CombiDT; details: human, in vivo
Procedure: Patients initiated DAB at the recommended daily dose of 150 mg twice daily. In patients treated with CombiDT, TRA was started at 2 mg once daily. Reduced starting doses were allowed at physician discretion based on comorbidities and patients’ general condition. All AE were graded using the National Cancer Institute Common Toxicity Criteria v4.0. DAB treatment was continued until disease progression, unacceptable toxicity, or unfitness to receive it.

[10] = bootstrap median (n = 500 samples)
[11] = multivariate Cox model with ECOG PS ≥2

For `CC(C)(CO)c1nc(-c2cccc(NS(=O)(=O)c3c(F)cccc3F)c2F)c(-c2ccnc(N)n2)s1` [OHD, hydroxy-dabrafenib], the difference in pharmacokinetics ([1]; DAB monotherapy vs. combiDT (ΔOFV = −2.9, p > 0.05)) was “did not differ”, the “CLm/F, apparent clearance of OHD” value ([1]; base DAB/OHD model) was 22.8 L/h and the “IIV CLm/F, interindividual variability (coefficient of variation)” value (“IIV CLm/F, interindividual variability” for short) ([1]; base DAB/OHD model) was 26.8%. The “IIV V3/F, interindividual variability (coefficient of variation)” value (“IIV V3/F, interindividual variability” for short) ([1]; base DAB/OHD model) was 84.0%, the “RUV of OHD, residual unexplained variability (proportional)” value ([1]; base DAB/OHD model) was 53.1% and the “CLm/F, apparent clearance of OHD” value [1, 10] was 22.9 L/h. The “IIV CLm/F, interindividual variability” value [1, 10] was 21.8%, the “IIV V3/F, interindividual variability” value [1, 10] was 82.0% and the “RUV of OHD, residual unexplained variability (proportional)” value [1, 10] was 52.7%. For the same molecule, the “θage/(CLm/F), Age effect on CLm/F” value [1, 10] was −0.543, the difference in pharmacokinetics ([1]; concomitant proton-pump inhibitor (PPI) intake (ΔOFV = −3.5, p > 0.05)) was “did not differ” and the “CLm/F, apparent clearance of OHD” value ([1]; final DAB/OHD model) was 23.2 L/h. The “IIV CLm/F, interindividual variability” value ([1]; final DAB/OHD model) was 24.0%, the “IIV V3/F, interindividual variability” value ([1]; final DAB/OHD model) was 47.5% and the “RUV of OHD, residual unexplained variability (proportional)” value ([1]; final DAB/OHD model) was 53.1%. The “θage/(CLm/F), Age effect on CLm/F” value ([1]; final DAB/OHD model, median age 61.2 years) was −0.589, the “base model variance of clearance explained by covariates (sex, age)” value ([1]; in vivo) was 20% and the “decrease in CLm/F” value ([1]; same age variation (20 to 90 years)) was 51%. The “Risk of Death, HR (CI95%) for AUCM3,OHD” value [2, 11] was 1.61 (1.07–2.45), the “Risk of Death, HR (CI95%) for AUCM3,OHD/DAB ratio ≥ 1” value [2, 11] was 10.61 (2.34–48.15) and the “Risk of Progression, HR (CI95%) for AUCM3,OHD” value ([2]; multivariate Cox model with cerebral metastases) was 1.29 (0.99–1.68). For the same molecule, the “Risk of Progression, HR (CI95%) for AUCM3,OHD” value ([2]; multivariate Cox model with number of metastasis site ≥3) was 1.27 (0.97–1.68), the “Risk of Death, HR (CI95%) for AUCM3,OHD/AUCM3,DAB ratio ≥ 1 vs. < 1” value ([2]; univariate Cox model) was 4.11 (1.18–14.29) and the “Risk of Progression, HR (CI95%) for AUCM3,OHD/AUCM3,DAB ratio ≥ 1 vs. < 1” value ([2]; univariate Cox model) was 1.66 (0.62–4.46). The “Risk of Death, HR (CI95%) for AUCM3” value ([2]; univariate Cox model) was 1.64 (1.09–2.48), the “Risk of Progression, HR (CI95%) for AUCM3” value ([2]; univariate Cox model) was 1.37 (1.02–1.83) and the “median AUCOHD/AUCDAB ratio” value [3] was 0.80 (0.50–1.32). For the same molecule, the “potency as an inhibitor of mutant BRAF compared to DAB” value [4] was “two-fold higher pharmacological potency; also recorded: twofold higher potency”, the “passage of the intact blood brain barrier” value [5] was “lack of OHD diffusion into the brain” and the “mean OHD-to-DAB exposure ratio in plasma” value [6] was 0.8. The “median AUCM3 (mean AUC during the first three months of treatment)” value ([7]; 30 MM patients of the exposure-survival analysis) was 6082 ng·h/mL, the “AUCM3,OHD/AUCM3,DAB ratio” value ([7]; patients experiencing cerebral progression) was 0.9 (0.5–1.3) and the “AUC, median (range)” value ([7]; patients with DAB-related DLT (n = 12), last AUC before onset of DLT) was 7509.5 (4918–10300) ng∙h/mL. For the same molecule, the “AUCM3,OHD/AUCM3,DAB ratio” value ([7]; patients with extra-cerebral progression) was 0.8 (0.6–0.8) and the “AUC, median (range)” value ([7]; patients without DAB-related DLT (n = 40), average AUC over treatment course) was 5812 (2459–10300) ng∙h/mL.
For `CC(=O)Nc1cccc(-n2c(=O)n(C3CC3)c(=O)c3c(Nc4ccc(I)cc4F)n(C)c(=O)c(C)c32)c1` [TRA, trametinib], the “CL/F, apparent clearance of TRA” value [8, 10] was 5.82 L/h, the “IIV CL/F, interindividual variability (coefficient of variation)” value [8, 10] was 28.6% and the “IIV Q, interindividual variability (coefficient of variation)” value [8, 10] was 80.1%. For the same molecule, the “RUV, residual unexplained variability (additive error)” value [8, 10] was 4.10 ng/mL, the “Tlag, lag time” value [8, 10] was 0.728 h and the “ka, first order absorption rate constant” value [8, 10] was 1.04 h⁻¹. For the same molecule, the “IIV CL/F, interindividual variability (coefficient of variation)” value ([8]; final TRA model) was 29.6%, the “IIV Q, interindividual variability (coefficient of variation)” value ([8]; final TRA model) was 80.2% and the “RUV, residual unexplained variability (additive error)” value ([8]; final TRA model) was 4.14 ng/mL. For the same molecule, the “Tlag, lag time” value ([8]; final TRA model) was 0.709 h, the “ka, first order absorption rate constant” value ([8]; final TRA model) was 0.913 h⁻¹ and the “CL/F, apparent clearance of TRA” value ([8]; final TRA model, n = 60) was 5.83 L/h. For the same molecule, the Vd/F [8, 10] was 65.1 L, the Vd/F ([8]; final TRA model) was 61.9 L and the “median time to onset of drug-related DLT” value [9] was 104 days. The “patients in whom the drug dose was reduced” value [9] was 23%, the “patients in whom the drug was discontinued permanently” value [9] was 10% and the “patients who experienced a drug-related DLT” value [9] was 33%. For the same molecule, the “Risk of Death, HR (CI95%) for AUCM3” value ([2]; univariate Cox model) was 1.37 (0.94–1.98), the “Risk of Progression, HR (CI95%) for AUCM3” value ([2]; univariate Cox model) was 1.31 (0.93–1.83) and the AUC ([7]; AUCTRA, median (range), patients with TRA-related DLT (n = 17), last AUC before onset of DLT) was 268 ng·h/mL. The AUC ([7]; AUCTRA, median (range), patients without TRA-related DLT (n = 35), average AUC over treatment course) was 268 ng·h/mL and the AUC ([7]; median AUCM3 (mean AUC during the first three months of treatment), 30 MM patients of the exposure-survival analysis) was 292 ng·h/mL.
In the case of `CC(C)c1nc(-c2cccc(NS(=O)(=O)c3c(F)cccc3F)c2F)c(-c2ccnc(N)n2)s1` [desmethyl-dabrafenib], the “passage of the intact blood brain barrier” value [5] is given as “may cross intact blood brain barrier”.
